# Data: paper PMC4394749 (Journal of medicinal chemistry, 2015)
# Key:
# [1] = system: PC-3 cells; experiment: Immunofluorescence staining of microtubules in PC-3 cells; format: cell-based, human; settings: PC-3, 24 h; for microtubule morphology: equitoxic concentrations: 0.2 µM 4, 0.2 µM CA-4, 5 µM VIN, 0.2 µM PXL; for dose-dependent effects on microtubule morphology: compounds 0.2, 2 or 20 µM, CA-4 0.002 or 20 µM
# [2] = system: MCF-7 (estrogen-receptor-positive, HER2-negative breast cancer); experiment: SRB antiproliferative assay, MCF-7; format: cell-based, human; settings: read-out: IC50 MCF-7, 72 h
# [3] = system: SK-BR-3 (HER2-overexpressing breast cancer); experiment: SRB antiproliferative assay, SK-BR-3; format: cell-based, human; settings: for IC50: read-out: IC50 SK-BR3, 72 h
# [4] = system: PC-3 (prostate cancer); experiment: SRB antiproliferative assay, PC-3; format: cell-based, human; settings: for IC50: read-out: IC50 PC-3; for IC50 / IC50 PC-3: SRB, 72 h
# [5] = system: KB-VIN (P-gp-overexpressing MDR subline of KB); experiment: SRB antiproliferative assay, KB-VIN; format: cell-based, human; settings: for IC50: read-out: IC50 KB-VIN, 72 h
# [6] = system: MDA-MB-231 (triple-negative breast cancer); experiment: SRB antiproliferative assay, MDA-MB-231; format: cell-based, human; settings: read-out: IC50 MDA-MB-231, 72 h
# [7] = system: ZR-75-1 (estrogen-receptor-positive, HER2-positive breast cancer); experiment: SRB antiproliferative assay, ZR-75-1; format: cell-based, human; settings: read-out: IC50 ZR-75-1, 72 h
# [8] = system: A549 (lung carcinoma); experiment: SRB antiproliferative assay, A549; format: cell-based, human; settings: for IC50: read-out: IC50 A549, 72 h; for IC50 A549: 72 h
# [9] = system: KB-VIN cells; experiment: Tubulin assembly in KB-VIN cells; format: cell-based, human; settings: data not shown
# [10] = biological target: T1, bovine brain tubulin (Bos taurus, UniProt P81947+Q6B856); experiment: Inhibition of purified tubulin assembly; format: biochemical
# T1 sequence (P81947 whole entry): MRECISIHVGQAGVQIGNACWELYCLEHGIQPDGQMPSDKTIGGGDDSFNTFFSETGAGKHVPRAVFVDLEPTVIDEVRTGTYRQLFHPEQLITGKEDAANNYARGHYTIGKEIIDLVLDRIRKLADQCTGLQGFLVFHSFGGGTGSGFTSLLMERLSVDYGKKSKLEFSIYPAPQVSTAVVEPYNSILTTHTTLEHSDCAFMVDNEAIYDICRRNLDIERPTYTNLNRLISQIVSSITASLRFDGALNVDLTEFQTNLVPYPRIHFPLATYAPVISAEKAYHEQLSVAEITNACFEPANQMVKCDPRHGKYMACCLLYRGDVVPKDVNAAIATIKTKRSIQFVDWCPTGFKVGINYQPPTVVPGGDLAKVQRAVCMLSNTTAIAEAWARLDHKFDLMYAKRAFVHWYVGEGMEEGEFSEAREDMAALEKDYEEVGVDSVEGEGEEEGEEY
# T1 sequence (Q6B856 whole entry): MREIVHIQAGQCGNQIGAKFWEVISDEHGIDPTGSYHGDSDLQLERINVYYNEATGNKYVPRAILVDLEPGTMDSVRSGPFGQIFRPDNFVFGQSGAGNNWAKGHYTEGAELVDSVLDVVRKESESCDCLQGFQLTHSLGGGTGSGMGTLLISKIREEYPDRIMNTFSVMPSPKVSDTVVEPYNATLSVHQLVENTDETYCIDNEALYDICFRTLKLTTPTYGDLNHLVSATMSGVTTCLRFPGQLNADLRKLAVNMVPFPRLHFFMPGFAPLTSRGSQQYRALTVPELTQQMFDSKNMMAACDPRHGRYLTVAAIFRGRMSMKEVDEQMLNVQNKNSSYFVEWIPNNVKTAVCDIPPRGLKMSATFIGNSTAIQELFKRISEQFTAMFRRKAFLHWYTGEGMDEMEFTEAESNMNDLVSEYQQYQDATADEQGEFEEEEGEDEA
# [11] = system: KB (epidermoid carcinoma of the nasopharynx); experiment: SRB antiproliferative assay, KB; format: cell-based, human; settings: for IC50: read-out: IC50 KB, 72 h; for IC50 KB: 72 h
# [12] = system: tumor cell lines overexpressing P-gp; settings: cited from earlier work
# [13] = system: PC-3 cells; experiment: Cell cycle analysis by flow cytometry; format: cell-based, human; settings: 2 µM, 24 h
# [14] = biological target: T1, bovine brain tubulin; experiment: Inhibition of [3H]colchicine binding to tubulin; settings: for ICB, percent inhibition of colchicine binding: 5 µM [3H]colchicine, 1 µM tubulin, 5 µM test compound
# [15] = system: HepG2 (hepatocellular carcinoma); experiment: SRB antiproliferative assay, HepG2; format: cell-based, human; settings: for IC50: read-out: IC50 Hep-G2, 72 h; for IC50 Hep-G2: 72 h
# [16] = system: HCT-8 (human colon adenocarcinoma); experiment: SRB antiproliferative assay, HCT-8; format: cell-based; settings: for IC50: read-out: IC50 HCT-8; for IC50 / IC50 HCT-8: SRB, 72 h
# [17] = system: human tumor cell lines; experiment: SRB antiproliferative assay, comparison across tumor cell lines; format: cell-based
# [18] = system: KB-VIN cells; experiment: Cell cycle analysis by flow cytometry; format: cell-based, human; settings: 6 or 24 h, PXL 3 µM, 4 0.5 µM, 8 2 µM
# [19] = system: KB cells; experiment: Cell cycle analysis by flow cytometry; format: cell-based, human; settings: 6 or 24 h, PXL 0.02 µM, 4 0.5 µM, 8 2 µM
Structure (SMILES),IC50 [3] [µM],IC50 [4] [µM],IC50 [8] [µM],IC50 [11] [µM],"ICB, percent inhibition of colchicine binding [14] [%]",IC50 [15] [µM],IC50 [16] [µM],IC50 [5] [µM],further results
"COc1ccc(/C=C\c2cc(OC)c(OC)c(OC)c2)cc1O [CA-4, combretastatin A-4, reference compound]",,,,,,,,,microtubule morphology [1]: both depolymerization of interphase microtubules and disruption of mitotic spindles; dose-dependent effects on microtubule morphology [1]: Dose-dependent disruption of both interphase microtubules and spindles
"CC1=C(O)C(C)(C)c2oc(-c3ccccc3)cc(=O)c2C1=O [Compound 1, Desmosdumotin B, reference compound]",> 40,> 40,> 40,> 135,,,,6.76,"IC50 [2]: > 40 µM; IC50 [6]: > 40 µM; IC50 [7]: > 40 µM; effect on tubulin assembly in cells [9]: no effects on tubulin assembly; ITA, inhibition of purified tubulin assembly, EC50 ([10]; 10 µM tubulin, 0.4 mM GTP, 30 °C, NA = not active): no effects on tubulin assembly; selective index (SI), IC50 against non-MDR cells divided by IC50 against MDR cells [12]: > 20"
"CCC1=C(O)c2c(oc(-c3ccccc3)cc2=O)C(CC)(CC)C1=O [Compound 2, 6,8,8-triethyldesmosdumotin B]",,,,,,,,,"selective index (SI), IC50 against non-MDR cells divided by IC50 against MDR cells [12]: > 220"
"CCC1=C(O)c2c(oc(-c3csc4cccc(OC)c34)cc2=O)C(CC)(CC)C1=O [Compound 10, 2-(4′-Methoxybenzo[b]thiophen-3′-yl)-6,8,8-triethyldes-mosdumotin B]",18.7,,,,,,,11.8,"IC50 PC-3 [4]: NA (NA, not active (IC50 > 10 µg/mL)); IC50 A549 [8]: NA (NA, not active (IC50 > 10 µg/mL)); IC50 KB [11]: NA ^e (NA, not active (IC50 > 10 µg/mL)); IC50 Hep-G2 [15]: NA (NA, not active (IC50 > 10 µg/mL)); IC50 HCT-8 [16]: NA (NA, not active (IC50 > 10 µg/mL))"
"CCC1=C(O)c2c(oc(-c3sc4ccccc4c3O)cc2=O)C(CC)(CC)C1=O [Compound 14, 2-(3′-Hydroxybenzo[b]thiophen-2′-yl)-6,8,8-triethyldesmos-dumotin B]",12.1,14.6,12.5,19.6,,15.8,16.5,6.61,fold reduced activity against PC-3 ([4]; compared with parent compound 13): 4 fold
"CCC1=C(O)c2c(oc(-c3ccc(O)c4ccccc34)cc2=O)C(CC)(CC)C1=O [Compound 16, 2-(4′-Hydroxynaphthalen-1′-yl)-6,8,8-triethyldesmosdumo-tin B]",,1.11,0.94,0.74,54,0.37,1.02,0.45,"antiproliferative effect, times greater than parent compound 5 ([17]; HepG2, KB and KB-VIN): 2–6 times"
"CCC1=C(O)c2c(oc(-c3ccc4cc(O)ccc4c3)cc2=O)C(CC)(CC)C1=O [Compound 19, 2-(6′-Hydroxynaphthalen-2′-yl)-6,8,8-triethyldesmosdumo-tin B]",13.8,12.9,14.9,19.9,,13.4,14.1,13.7,"fold less active than 15 and 16 ([17]; generally, over the tested cell lines): ~10 fold"
"CC(=O)O[C@H]1C(=O)[C@@]2(C)[C@H]([C@H](OC(=O)c3ccccc3)[C@]3(O)C[C@H](OC(=O)[C@H](O)[C@@H](NC(=O)c4ccccc4)c4ccccc4)C(C)=C1C3(C)C)[C@]1(OC(C)=O)CO[C@@H]1C[C@@H]2O [PXL, paclitaxel, reference compound]",,,,,,,,,effect on cell cycle distribution [18]: did not show any effect; microtubule morphology [1]: inhibited the onset of mitosis and arrested cells at prometaphase with condensed chromosomes; effect on cell cycle distribution [19]: significantly impacted the cell cycle
"CC[C@]1(O)C[C@H]2CN(CCc3c([nH]c4ccccc34)[C@@](C(=O)OC)(c3cc4c(cc3OC)N(C=O)[C@H]3[C@@](O)(C(=O)OC)[C@H](OC(C)=O)[C@]5(CC)C=CCN6CC[C@]43[C@@H]65)C2)C1 [VIN, vincristine, reference compound]",,,,,,,,,microtubule morphology [1]: tubulin paracrystal formation

# Further lines, with some results ahead:
IC50 [3] [µM],IC50 [4] [µM],IC50 [8] [µM],IC50 [11] [µM],"ICB, percent inhibition of colchicine binding [14] [%]",IC50 [15] [µM],IC50 [16] [µM],Structure (SMILES),IC50 [5] [µM],further results
0.65,1.73,1.78,2.01,70,1.29,1.71,"CCC1=C(O)c2c(oc(-c3csc4cccc(O)c34)cc2=O)C(CC)(CC)C1=O [Compound 6, 2-(4′-Hydroxybenzo[b]thiophen-3′-yl)-6,8,8-triethyldesmos-dumotin B]",,"effect on cell cycle distribution [13]: efficiently induced accumulation of G2/M phase cells; IC50 [2]: 2.75 µM; dose-dependent effects on microtubule morphology [1]: Dose-dependent disruption of both interphase microtubules and spindles; IC50 [6]: 0.71 µM; IC50 [7]: 11.6 µM; inhibitory effect on tubulin assembly, fold greater than 8 ([10]; 6 compared with 8): 2 fold; inhibitory effect on colchicine binding, fold greater than 8 ([14]; 6 compared with 8): 2 fold"
,,,,32,,,"CCC1=C(O)c2c(oc(-c3csc4ccc(O)cc34)cc2=O)C(CC)(CC)C1=O [Compound 7, 2-(5′-Hydroxybenzo[b]thiophen-3′-yl)-6,8,8-triethyldesmos-dumotin B]",,
,,,,39,,,"CCC1=C(O)c2c(oc(-c3csc4cc(O)ccc34)cc2=O)C(CC)(CC)C1=O [Compound 8, 2-(6′-Hydroxybenzo[b]thiophen-3′-yl)-6,8,8-triethyldesmos-dumotin B]",,
,1.47,2.04,1.28,37,3.01,10.6,"CCC1=C(O)c2c(oc(-c3csc4c(O)cccc34)cc2=O)C(CC)(CC)C1=O [Compound 9, 2-(7′-Hydroxybenzo[b]thiophen-3′-yl)-6,8,8-triethyldesmos-dumotin B]",1.12,effect on cell cycle distribution [13]: efficiently induced accumulation of G2/M phase cells; dose-dependent effects on microtubule morphology [1]: Dose-dependent disruption of both interphase microtubules and spindles; fold reduced inhibitory effect against HCT-8 ([16]; compared with 6 and 8): more than 5 fold
,,,,,,16.2,"CCC1=C(O)c2c(oc(-c3csc4ccc(OC)cc34)cc2=O)C(CC)(CC)C1=O [Compound 11, 2-(5′-Methoxybenzo[b]thiophen-3′-yl)-6,8,8-triethyldes-mosdumotin B]",,"IC50 SK-BR3 ([3]; 72 h): NA (NA, not active (IC50 > 10 µg/mL)); IC50 PC-3 [4]: NA (NA, not active (IC50 > 10 µg/mL)); IC50 KB-VIN ([5]; 72 h): NA (NA, not active (IC50 > 10 µg/mL)); IC50 A549 [8]: NA (NA, not active (IC50 > 10 µg/mL)); IC50 KB [11]: NA (NA, not active (IC50 > 10 µg/mL)); IC50 Hep-G2 [15]: NA (NA, not active (IC50 > 10 µg/mL))"
7.97,8.51,15.8,12.1,,,,"CCC1=C(O)c2c(oc(-c3csc4c(OC)cccc34)cc2=O)C(CC)(CC)C1=O [Compound 12, 2-(7′-Methoxybenzo[b]thiophen-3′-yl)-6,8,8-triethyldes-mosdumotin B]",10.7,"IC50 [2]: 7.22 µM; IC50 [6]: 8.17 µM; IC50 [7]: 9.81 µM; IC50 Hep-G2 [15]: NA (NA, not active (IC50 > 10 µg/mL)); IC50 HCT-8 [16]: NA (NA, not active (IC50 > 10 µg/mL))"
